# Source: patent US20230365563A1, “QUINAZOLINE COMPOUND AND APPLICATION THEREOF” (SHANGHAI PHARMACEUTICALS HOLDING CO., LTD., priority 2020, published 2023)
# Counter-ions that a name gives are not always drawn.
# Target: T1, KRAS-G12D and SOS1 (Homo sapiens, UniProt P01116, G12D)
# T1 construct: purchased
# Test: Inhibition of KRAS-G12D/SOS1 binding (Cisbio binding kit, 665/615 ratio), Effect Embodiment A
# Conditions: read-out: GTP-KRAS-G12D:SOS1 IC50
# Summary of the method: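 Test compounds were serially diluted 3-fold from the storage solution over 11 points and dispensed in duplicate wells at 1% final DMSO.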
# T1 sequence (P01116 1-188 isoform P01116-2 G12D): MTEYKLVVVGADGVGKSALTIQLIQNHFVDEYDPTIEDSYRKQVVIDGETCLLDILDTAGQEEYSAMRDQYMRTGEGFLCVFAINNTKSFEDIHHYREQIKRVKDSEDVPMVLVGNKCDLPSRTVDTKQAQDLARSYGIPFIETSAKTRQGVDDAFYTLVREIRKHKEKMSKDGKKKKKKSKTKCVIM
row,IC50,Compound
1,0.276 µM,"Oc1cc(-c2c(Cl)cc3c(N4CC5CCC(C4)N5)nc(OCC(F)CN4C5CCC4COC5)nc3c2F)c2ccccc2c1 (single isomer, unassigned) [Compound 179a, ((4R or 4S)-4-(2-((2R or 2S)-3-(3-oxa-8-azabicyclo[3.2.1]octan-8-yl)-2-fluoropropoxy)-4-((1R,5S)-3,8-diazabicyclo[3.2.1]octan-3-yl)-6-chloro-8-fluoroquinazolin-7-yl)naphthalen-2-ol diformate]"
2,65.1 µM,"CN(C)C1CN(c2nc(N3CC4(CCNCC4)C3)c3cc(Cl)c(-c4cc(O)cc5ccccc45)c(F)c3n2)C1 (single isomer, unassigned) [Compound 10b, (S or R)-4-(6-chloro-2-(3-(dimethylamino)azetidin-1-yl)-8-fluoro-4-(2,7-diazaspiro[3.5 5]nonan-2-yl)quinazolin-7-yl)naphthalen-2-ol]"
3,5.81 µM,"CN(C)CCN(C)c1nc(N2CC(N(C)C)C2)nc2c(F)c(-c3cc(O)cc4ccccc34)c(Cl)cc12 (single isomer, unassigned) [Compound 17a, (R or S)-4-(6-chloro-2-(3-(dimethylamino)azetidin-1-yl)-4-((2-(dimethylamino)ethyl)(methyl)amino)-8-fluoro-quinazolin-7-yl)naphthalen-2-ol]"
4,56.7 µM,"CN(C)C1CN(c2nc(N3CC4CNCC4C3)c3cc(Cl)c(-c4cc(O)cc5ccccc45)c(F)c3n2)C1 (single isomer, unassigned) [Compound 14d, (S or R)-4-(6-chloro-2-(3-(dimethylamino)azetidin-1-yl)-8-fluoro-4-((3aR,6aR or 3aS,6aS)-hexahydro-pyrrolo[3,4-c]pyrrol-2(1H)-yl)quinazolin-7-yl)naphthalen-2-ol]"
5,8.32 µM,"CN1CCC[C@H]1C1(Oc2nc(N3CC4CCC(C3)N4)c3cc(Cl)c(-c4cc(O)cc5ccccc45)c(F)c3n2)CC1 (single isomer, unassigned) [Compound 189, 4-((R or S)-4-((1R,5S)-3,8-diazabicyclo[3.2.1]octan-3-yl)-6-chloro-8-fluoro-2-(1-((S)-1-methylpyrrolidin-2-yl)cyclopropoxy)quinazolin-7-yl)naphthalen-2-ol diformate]"
6,31.7 µM,"CN(C)C1CN(c2nc(N3CC4CCC(C3)N4)c3cc(Cl)c(-c4cc(O)cc5cccc(F)c45)c(F)c3n2)C1 (single isomer, unassigned) [Compound 64a, 4-((S or R)-4-((1R,5S)-3,8-diazabicyclo[3.2.1]octan-3-yl)-6-chloro-2-(3-(dimethylamino)azetidin-1-yl)-8-fluoroquinazolin-7-yl)-5-fluoronaphthalen-2-ol]"
7,5.34 µM,"CN1CCC[C@H]1COc1nc(N2CC3CCC(C2)N3)c2cc(Cl)c(-c3cc(O)c(F)c4ccccc34)c(F)c2n1 (single isomer, unassigned) [Compound 89b, (R or S)-4-(4-((1R,5S)-3,8-diazabicyclo[3.2.1]octan-3-yl)-6-chloro-8-fluoro-2-(S)-1-methylpyrrolidin-2-yl)methoxy)quinazolin-7-yl)-1-fluoronaphthalen-2-ol hydrochloride]"
8,0.263 µM,"Cc1ccc2[nH]ncc2c1-c1c(Cl)cc2c(N3CC4CCC(C3)N4)nc(OC[C@@H]3CCCN3C)nc2c1F (single isomer, unassigned) [Compound 90a, 4-((1R,5S)-3,8-diazabicyclo[3.2.1]octan-3-yl)-6-chloro-8-fluoro-7-((R or S)-5-methyl-1H-indazol-4-yl)-2-((S)-1-methylpyrrolidin-2-yl)methoxy)quinazoline hydrochloride]"
9,5.94 µM,"CN(C)C1CN(c2nc(C3(C(N)=O)CN(C(=N)N)C3)c3cc(Cl)c(-c4cc(O)cc5ccccc45)c(F)c3n2)C1 (single isomer, unassigned) [Compound 145, (R or S)-1-Carbamimidoyl-3-(6-chloro-2-(3-(dimethylamino)azetidin-1-yl)-8-fluoro-7-(3-hydroxynaphthalen-1-yl)quinazolin-4-yl)azetidin-3-carboxamide ditrifluoroacetate]"
10,~69.7 µM,"CN(C)C1CN(c2nc(NC3CC4CCCC(C3)N4)c3cc(Cl)c(-c4cc(O)cc5ccccc45)c(F)c3n2)C1 (single isomer, unassigned) [Compound 31, 4-((S or R)-4-(((1R,3R,5S)-9-azabicyclo[3.3.1]nonan-3-yl)amino)-6-chloro-2-(3-(dimethylamino)azetidin-1-yl)-8-fluoroquinazolin-7-yl)naphthalen-2-ol]"
11,5.07 µM,"CCc1cccc2cc(O)cc(-c3c(F)cc4c(N5CC6CCC(C5)N6)nc(OCCCN5CCOC[C@H]5C)nc4c3F)c12 (single isomer, unassigned) [Compound 282b, (R or S)-4-(4-((1R,5S)-3,8-diazacyclo[3.2.1]octan-3-yl)-6,8-difluoro-2-(3-((R)-3-methylmorpholinyl)propoxy)quinazolin-7-yl)-5-ethylnaphthalen-2-ol dihydrochloride]"
12,12.9 µM,"Oc1cc(-c2c(Cl)cc3c(N4CC5CCC(C4)N5)nc(OCCCN4CCCC4)nc3c2F)c2ccccc2c1 (single isomer, unassigned) [Compound 63b, 4-((R or S)-4-((1R,5S)-3,8-diazabicyclo[3.2.1]octan-3-yl)-6-chloro-8-fluoro-2-(3-(pyrrolidin-1-yl)propoxy)quinazolin-7-yl)naphthalen-2-ol]"
13,0.147 µM,"Oc1cc(-c2c(Cl)cc3c(N4CC5CCC(C4)N5)nc(OCCN4CCOCC4)nc3c2F)c2ccccc2c1 (single isomer, unassigned) [Compound 121, 4-((S or R)-4-((1R,5S)-3,8-diazabicyclo[3.2.1]octan-3-yl)-6-chloro-8-fluoro-2-(2-(morpholinylethoxy)quinazolin-7-yl)naphthalen-2-oldihydrochloride]"
14,0.449 µM,"CCc1cccc2cccc(-c3c(F)cc4c(N5CC6CCC(C5)N6)nc(OC[C@@]56CCCN5C[C@H](F)C6)nc4c3F)c12 (single isomer, unassigned) [Compound 281b, (R or S)-4-((1R,5S)-3,8-diazacyclo[3.2.1]octan-3-yl)-7-(8-ethylnaphthalen-1-yl)-6,8-difluoro-2-((2R,7aS)-2-fluorotetrahydro-1H-pyrrolin-7a(5H)-yl)methoxy)quinazoline dihydrochloride]"
15,23.3 µM,"CC(=N)N1C2CCC1CN(c1nc(N3CC(N(C)C)C3)nc3c(F)c(-c4cc(O)cc5ccccc45)c(Cl)cc13)C2 (single isomer, unassigned) [Compound 87, 4-((S or R)-6-chloro-2-(3-(dimethylamino)azetidin-1-yl)-8-fluoro-4-((1R,5S)-8-(1-iminoethyl)-3,8-diazabicyclo[3.2.1]octan-3-yl)quinazolin-7-yl)naphthalen-2-ol trifluoroacetate]"
16,2.01 µM,"CCc1cccc2cc(O)cc(-c3c(F)cc4c(N5CC6CCC(C5)N6)nc(OC[C@H](C)CN5C6CCC5COC6)nc4c3F)c12 (single isomer, unassigned) [Compound 284b, (4R or 4S)-4-(2-((2R)-3-(3-oxa-8-azabicyclo[3.2.1]octan-8-yl)-2-methylpropoxy)-4-((1R,5S)-3,8-diazabicyclo[3.2.1]octan-3-yl)-6,8-difluoroquinazolin-7-yl)-5-ethylnaphthalen-2-o1 dihydrochloride]"
17,187 µM,"CN(C)C1CN(c2nc(N[C@@H]3C[C@H]4CCC[C@@H](C3)N4)c3cc(Cl)c(-c4cc(O)cc5ccccc45)c(F)c3n2)C1 (single isomer, unassigned) [Compound 32, 4-((S or R)-4-(((1R,3S,5S)-9-azabicyclo[3.3.1]nonan-3-yl)amino)-6-chloro-2-(3-(dimethylamino)azetidin-1-yl)-8-fluoroquinazolin-7-yl)naphthalen-2-ol]"
18,8.96 µM,"CN(C)C1CN(c2nc(NCC(=N)N)c3cc(Cl)c(-c4cc(O)cc5ccccc45)c(F)c3n2)C1 (single isomer, unassigned) [Compound 76, (S or R)-2-((6-chloro-2-(3-(dimethylamino)azetidin-1-yl)-8-fluoro-7-(3-hydroxynaphthalen-1-yl)quinazolin-4-yl)amino)acetimidamide diformate]"
19,15.7 µM,"CN(C)CCCOc1nc2c(c(N3CCNCC3)n1)CCN(c1cc(O)cc3ccccc13)C2 [Compound 73, 4-(2-(3-(Dimethylamino)propoxy)-4-(piperazin-1-yl)-5,8-dihydropyrido[3,4-d]pyrimidin-7(6H)-yl)naphthalen-2-ol]"
20,22.1 µM,"Oc1cc(-c2c(Cl)cc3c(N4CC5CCC(C4)N5)nc(OCCCN4CCOCC4)nc3c2F)c2ccccc2c1 (single isomer, unassigned) [Compound 54b, 4-((R or S)-4-((1R,5S)-3,8-diazabicyclo[3.2.1]octan-3-yl)-6-chloro-8-fluoro-2-(3-morpholinopropoxy)quinazolin-7-yl)naphthalen-2-ol dihydrochloride]"
21,1.23 µM,"CN(C)C1CN(c2nc(N3C[C@H]4CC[C@@H](C3)[C@@H]4N)c3cc(Cl)c(-c4cc(O)cc5ccccc45)c(F)c3n2)C1 (single isomer, unassigned) [Compound 30, (S or R)-4-(4-((1R,5S,8S)-8-amino-3-azabicyclo[3.2.1]octan-3-yl)-6-chloro-2-(3-(dimethylamino)azetidin-1-yl)-8-fluoroquinazolin-7-yl)naphthalen-2-ol]"
22,4.79 µM,"CN(C)C1CN(c2nc(N3CC4CCC(C3)N4C(=N)N)c3cc(Cl)c(-c4cc(O)cc5ccccc45)c(F)c3n2)C1 (single isomer, unassigned) [Compound 85, (1R,5S)-3-((S or R)-6-chloro-2-(3-(dimethylamino)azetidin-1-yl)-8-fluoro-7-(3-hydroxynaphthalen-1-yl)quinazolin-4-yl)-3,8-diazabicyclo[3.2.1]octane-8-carboximidamide diformate]"

row,Compound,IC50
1,"CC(C)(CCOc1nc(N2CC3CCC(C2)N3)c2cc(Cl)c(-c3cc(O)cc4ccccc34)c(F)c2n1)N1CCCC1 (single isomer, unassigned) [Compound 123, 4-((S or R)-4-((1R,5S)-3,8-diazabicyclo[3.2.1]octan-3-yl)-6-chloro-8-fluoro-2-(3-methyl-3-(pyrrolidin-1-yl)butoxy)quinazolin-7-yl)naphthalen-2-ol dihydrochloride]",0.106 µM
